{
  "source": "paper PMC8528301",
  "about": "(PLoS ONE, 2021)",
  "assay": "Dasatinib single oral gavage plasma pharmacokinetics (NLME modeling)",
  "assay_type": "in vivo, mouse",
  "set-up": "DV (dasatinib plasma concentration): unit: ng/mL",
  "settings": "for CL/F: both sexes, po, read-out: Cl_pop (apparent oral clearance) (converted); for CL/F / concentration at 0.5 h / concentration at 1 h / concentration at 2 h / concentration at 8 h / concentration at 16 h / concentration at […] / concentration at 4 h / concentration at 24 h: C57BL/6, mouse, plasma, 10 mg/kg; for concentration at 0.5 h / concentration at 1 h / concentration at 2 h / concentration at 8 h / concentration at 16 h / concentration at […] / concentration at 4 h / concentration at 24 h: oral, read-out: DV (dasatinib plasma concentration)",
  "method": "Dasatinib was dissolved in 80 mMol/L sodium citrate buffer pH 3.1 for a total dasatinib concentration of 1 mg/mL and a 10 mL/kg gavage volume. Mice were grouped by VD3 status and sex and studied at 8 and 10 weeks of age. […] Saphenous and submandibular bleeds of mice using a single-use Sarstedt Minivette POCT 50 μL K3 EDTA capillary device are humane methods for obtaining small volumes of blood over multiple time points, preferrable to retroorbital bleeds, and were approved for this study that required blood sampling at multiple time points (three) after dasatinib administration. Each mouse was sampled three times on two separate dasatinib dosing occasions. Blood was collected into the Minivette capillary device, dispensed into a microtube and vortexed to mix the anticoagulant. The tubes were then immediately centrifuged to plasma and stored on dry ice for the remainder of the study. At the end of the in vivo procedures, plasma samples were transferred from dry ice and placed at -80°C until analysis.\nTotal plasma dasatinib concentrations were assessed using a sensitive and specific liquid chromatography, tandem mass spectrometry (LC-MS/MS) assay. Dasatinib stock solutions were prepared in acetonitrile and used to spike matrix calibrators and quality controls. Protein precipitation was performed using a 1:4 ratio of plasma to 15 ng/mL erlotinib HCl (St. Jude Compound Management, S00004053, Inventory ID: SJCH0042996, Purity > 95%) in methanol as an internal standard. A 3μL aliquot of the extracted supernatant was injected onto a Shimadzu LC-20ADXR high performance liquid chromatography system via a LEAP CTC PAL autosampler. The LC separation was performed using a Phenomenex Kinetex 2.6 um EVO C18 (100A, 50 x 2.1 mm) maintained at 50°C with gradient elution at a flow rate of 0.5 mL/min. The binary mobile phase gradient began with a linear increase to 100% B in 4.0 minutes. The column was then rinsed for 2.0 minutes at 100% B and then equilibrated at the initial conditions for two minutes for a total run time of eight minutes.\nAnalyte and IS were detected with tandem mass spectrometry using a SCIEX API 5500 Q-TRAP in the positive ESI mode with monitoring of the following mass transitions: Dasatinib 488.20 -> 401.00, erlotinib HCl 394.20 -> 250.10.\nThe experimental bioanalytical runs were all found to be acceptable for the purpose of a singlicate non-GLP, preclinical PK assessment. A linear model (1/X^2 weighting) fit the calibrators across the 1.00 to 500 ng/mL range, with a correlation coefficient (R) of […]. The lower limit of quantification (LLOQ), defined as a peak area signal-to-noise ratio of 5 or greater verses a matric blank with IS, was 1.00 ng/mL.\n§ To evaluate the plasma pharmacokinetics (PK) of dasatinib af t er two separate single oral gavage doses of solution, separated by a washout period, in normal C57BL/6 mice […]\nvs 10wk) on the plasma PK of oral dasatinib us ing a nonlinear mixed effects (NLME) PK modeling […]\n2. 1 In Vivo Pharmacokinetic (PK) Study\nThe total plasma PK of dasatinib in C57BL/6 mice (The Jackson Laboratory) was assessed after single oral gavages of 10 mg/kg of dasatinib free base equivalents. Dasatinib (St. Jude Compound […]\nsodium citrate buffer pH 3.1 for a final dasatinib concentration of 1 mg/mL for a 10 mL/kg gavage volume.\nMice were grouped by Vitamin D dietary sufficiency status and sex, and studied at 8 and 10 weeks of age. Survival saphenous and facial vein bleeding of mice was conducted using IACUC-approved […]\nwas sampled 3 times on the 2 separate occasions of dasatinib dosing. […] The tubes were then immediately centrifuged to plasma, and stored on dry ice for […]",
  "note": "“And” between values parts separate entries of the source, which are not always exact repeats. Equal entries are not always repeated. Where two headings read alike, the source gives them in different places.",
  "data": [
    {"smiles": "Cc1nc(Nc2ncc(C(=O)Nc3c(C)cccc3Cl)s2)cc(N2CCN(CCO)CC2)n1", "note": "[dasatinib]", "values": [
      {"measurement": "DV (dasatinib plasma concentration)", "setting": "GROUP:VD3 Suf, SEX:M, OCC 2, time 0.25", "result": "101.99 and 116.5"},
      {"measurement": "DV (dasatinib plasma concentration)", "setting": "GROUP:VD3 Suf, SEX:M, OCC 2, time 0.5", "result": "207.19 and 212.25"},
      {"measurement": "DV (dasatinib plasma concentration)", "setting": "GROUP:VD3 Suf, SEX:M, OCC 2, time 2", "result": "297.27 and 320.75"},
      {"measurement": "DV (dasatinib plasma concentration)", "setting": "GROUP:VD3 Suf, SEX:M, OCC 2, time 8", "result": "10.361 and 16.431"},
      {"measurement": "DV (dasatinib plasma concentration)", "setting": "GROUP:VD3 Suf, SEX:M, OCC 2, time 24", "result": "3.3895 and 3.3706"},
      {"measurement": "CL/F", "setting": "Base Model, 10 mg/kg oral gavage", "result": 112, "unit": "mL/min/kg"},
      {"measurement": "CL/F", "setting": "Final Model", "result": 119, "unit": "mL/min/kg"},
      {"measurement": "concentration at 0.5 h", "setting": "female, GROUP:VD3 Def, SEX:F, OCC 1, time 0.5", "result": 149, "unit": "ng/mL"},
      {"measurement": "concentration at 1 h", "setting": "female, GROUP:VD3 Def, SEX:F, OCC 1, time 1", "result": 278, "unit": "ng/mL"},
      {"measurement": "concentration at 2 h", "setting": "female, GROUP:VD3 Def, SEX:F, OCC 1, time 2", "result": 435, "unit": "ng/mL"},
      {"measurement": "concentration at 8 h", "setting": "female, GROUP:VD3 Def, SEX:F, OCC 1, time 8", "result": 25.2, "unit": "ng/mL"},
      {"measurement": "concentration at 16 h", "setting": "female, GROUP:VD3 Def, SEX:F, OCC 1, time 16", "result": 4.02, "unit": "ng/mL"},
      {"measurement": "concentration at […]", "setting": "female, GROUP:VD3 Def, SEX:F, OCC 2, time 0.125", "result": 49, "unit": "ng/mL"},
      {"measurement": "concentration at […]", "setting": "female, GROUP:VD3 Def, SEX:F, OCC 2, time 0.25", "result": 146, "unit": "ng/mL"},
      {"measurement": "concentration at 0.5 h", "setting": "female, GROUP:VD3 Def, SEX:F, OCC 2, time 0.5", "result": 188, "unit": "ng/mL"},
      {"measurement": "concentration at 16 h", "setting": "female, GROUP:VD3 Def, SEX:F, OCC 2, time 16", "result": 4.35, "unit": "ng/mL"},
      {"measurement": "concentration at […]", "setting": "female, GROUP:VD3 Suf, SEX:F, OCC 1, time 0.25", "result": 167, "unit": "ng/mL"},
      {"measurement": "concentration at 0.5 h", "setting": "female, GROUP:VD3 Suf, SEX:F, OCC 1, time 0.5", "result": 231, "unit": "ng/mL"},
      {"measurement": "concentration at 2 h", "setting": "female, GROUP:VD3 Suf, SEX:F, OCC 1, time 2", "result": 405, "unit": "ng/mL"},
      {"measurement": "concentration at 4 h", "setting": "female, GROUP:VD3 Suf, SEX:F, OCC 1, time 4", "result": 54.1, "unit": "ng/mL"},
      {"measurement": "concentration at 8 h", "setting": "female, GROUP:VD3 Suf, SEX:F, OCC 1, time 8", "result": 22, "unit": "ng/mL"},
      {"measurement": "concentration at 16 h", "setting": "female, GROUP:VD3 Suf, SEX:F, OCC 1, time 16", "result": 2.06, "unit": "ng/mL"},
      {"measurement": "concentration at 0.5 h", "setting": "female, GROUP:VD3 Suf, SEX:F, OCC 2, time 0.5", "result": 137, "unit": "ng/mL"},
      {"measurement": "concentration at 1 h", "setting": "female, GROUP:VD3 Suf, SEX:F, OCC 2, time 1", "result": "> 500", "unit": "ng/mL"},
      {"measurement": "concentration at 2 h", "setting": "female, GROUP:VD3 Suf, SEX:F, OCC 2, time 2", "result": 441, "unit": "ng/mL"},
      {"measurement": "concentration at 4 h", "setting": "female, GROUP:VD3 Suf, SEX:F, OCC 2, time 4", "result": 64, "unit": "ng/mL"},
      {"measurement": "concentration at 16 h", "setting": "female, GROUP:VD3 Suf, SEX:F, OCC 2, time 16", "result": 8.15, "unit": "ng/mL"},
      {"measurement": "concentration at […]", "setting": "male, GROUP:VD3 Def, SEX:M, OCC 1, time 0.25", "result": 145, "unit": "ng/mL"},
      {"measurement": "concentration at 0.5 h", "setting": "male, GROUP:VD3 Def, SEX:M, OCC 1, time 0.5", "result": 194, "unit": "ng/mL"},
      {"measurement": "concentration at 2 h", "setting": "male, GROUP:VD3 Def, SEX:M, OCC 1, time 2", "result": "> 500", "unit": "ng/mL"},
      {"measurement": "concentration at 4 h", "setting": "male, GROUP:VD3 Def, SEX:M, OCC 1, time 4", "result": 87.8, "unit": "ng/mL"},
      {"measurement": "concentration at 8 h", "setting": "male, GROUP:VD3 Def, SEX:M, OCC 1, time 8", "result": 16.2, "unit": "ng/mL"},
      {"measurement": "concentration at 24 h", "setting": "male, GROUP:VD3 Def, SEX:M, OCC 1, time 24", "result": 6.39, "unit": "ng/mL"},
      {"measurement": "concentration at 0.5 h", "setting": "male, GROUP:VD3 Def, SEX:M, OCC 2, time 0.5", "result": 178, "unit": "ng/mL"},
      {"measurement": "concentration at 1 h", "setting": "male, GROUP:VD3 Def, SEX:M, OCC 2, time 1", "result": "> 500", "unit": "ng/mL"},
      {"measurement": "concentration at 2 h", "setting": "male, GROUP:VD3 Def, SEX:M, OCC 2, time 2", "result": 287, "unit": "ng/mL"},
      {"measurement": "concentration at 4 h", "setting": "male, GROUP:VD3 Def, SEX:M, OCC 2, time 4", "result": 83.2, "unit": "ng/mL"},
      {"measurement": "concentration at 8 h", "setting": "male, GROUP:VD3 Def, SEX:M, OCC 2, time 8", "result": 15.5, "unit": "ng/mL"},
      {"measurement": "concentration at 16 h", "setting": "male, GROUP:VD3 Def, SEX:M, OCC 2, time 16", "result": 11.1, "unit": "ng/mL"},
      {"measurement": "concentration at […]", "setting": "male, GROUP:VD3 Suf, SEX:M, OCC 1, time 0.125", "result": 49.4, "unit": "ng/mL"},
      {"measurement": "concentration at […]", "setting": "male, GROUP:VD3 Suf, SEX:M, OCC 1, time 0.25", "result": 110, "unit": "ng/mL"},
      {"measurement": "concentration at 2 h", "setting": "male, GROUP:VD3 Suf, SEX:M, OCC 1, time 2", "result": 350, "unit": "ng/mL"},
      {"measurement": "concentration at 4 h", "setting": "male, GROUP:VD3 Suf, SEX:M, OCC 1, time 4", "result": 147, "unit": "ng/mL"},
      {"measurement": "concentration at […]", "setting": "male, GROUP:VD3 Suf, SEX:M, OCC 2, time 0.25", "result": 107, "unit": "ng/mL"},
      {"measurement": "concentration at 0.5 h", "setting": "male, GROUP:VD3 Suf, SEX:M, OCC 2, time 0.5", "result": 316, "unit": "ng/mL"},
      {"measurement": "concentration at 1 h", "setting": "male, GROUP:VD3 Suf, SEX:M, OCC 2, time 1", "result": "> 500", "unit": "ng/mL"},
      {"measurement": "concentration at 2 h", "setting": "male, GROUP:VD3 Suf, SEX:M, OCC 2, time 2", "result": 366, "unit": "ng/mL"},
      {"measurement": "concentration at 8 h", "setting": "male, GROUP:VD3 Suf, SEX:M, OCC 2, time 8", "result": 20.4, "unit": "ng/mL"},
      {"measurement": "concentration at 24 h", "setting": "male, GROUP:VD3 Suf, SEX:M, OCC 2, time 24", "result": 1.88, "unit": "ng/mL"}
    ]}
  ]
}
